Results on 29 compounds are retold here after patent publication US20250325547A1, “ANTI-SARS-COV-2 DRUG” (KAGOSHIMA UNIVERSITY, priority 2021, published 2025).

Tested on in one series: not listed separately
Put plainly: in vitro. As to conditions: human.
Take `CCN(Cc1cc(Nc2ncnc3ccccc23)cc(Cl)c1O)C1CCCCC1` [Compound 19]: the CC50 at 3 days is 36.1 µM.

The subject of a further series is HEK293T/ACE2 cells.
Assay: not given
To be noted: Table 5, HEK293T/ACE2, lower row.
As for `CCN(Cc1cc(Nc2ncnc3ccccc23)cc(Cl)c1O)C(C)C` [Compound 11], the CC50 worked out at 85.4 µM.

`CC(C)N(Cc1cc(Nc2ncnc3ccccc23)cc(Cl)c1O)C(C)C` [Compound 15] had a CC50 above 100 µM.

The same series, now with this note: read-out: 50% toxicity concentration (CC50); HEK293T/ACE2 cells, text b80.
Take `CC(C)N(Cc1cc(Nc2ncnc3ccccc23)cc(Cl)c1O)C(C)C` [Compound 15]: the CC50 is above 100 µM.

In another series the test system is SARS-CoV-2 (WK-521). Put plainly: microbe, parasite or virus in culture. The series is classed as cell-based. To be noted: Severe acute respiratory syndrome coronavirus 2, 72 h, read-out: EC50 (50% effective concentration, inhibits cell death induced by SARS-CoV-2 infection by 50%); VeroE6/TMPRSS2 cells, SARS-CoV-2 WK-521, MOI 0.01, 3 days; Tables 1-4.
With `C[C@@H]1CN(Cc2cc(Nc3ncnc4ccccc34)cc(Cl)c2O)[C@@H](C)CN1C` (racemic) [Compound 33], the EC50 turned out to be 54.7 µM.

On to `CCN(CC)Cc1cc(Nc2ncnc3ccccc23)cc(Br)c1O` [Compound 3], for which the EC50 was determined as 23.9 µM.

For `CCN(CC)Cc1cc(Nc2ncnc3ccccc23)cc(I)c1O` [Compound 4], the EC50 stood at 16.9 µM.

Take `CCN(CC)Cc1cc(Nc2ncnc3cc(OC)c(OC)cc23)cc(I)c1O` [Compound 5]: the EC50 was 31.6 µM.

For `CCN(CC)Cc1cc(Nc2nc(N(C)C)nc3ccccc23)cc(I)c1O` [Compound 6], the EC50 is 12.9 µM.

In the case of `CCN(CC)Cc1cc(Nc2nc(N(C)C)nc3ccccc23)cc(Cl)c1O` [Compound 7], the EC50 stood at 7.2 µM.

Regarding `CCNCc1cc(Nc2ncnc3ccccc23)cc(I)c1O` [Compound 13], the EC50 stood at 44.7 µM.

Turning to `CCN(Cc1cc(Nc2ncnc3ccccc23)cc(Cl)c1O)C(C)(C)C` [Compound 20], the EC50 was determined as 3.9 µM.

As for `CCCN(Cc1cc(Nc2ncnc3ccccc23)cc(Cl)c1O)C(C)C` [Compound 21], the EC50 was determined as 11.7 µM.

For the compound `CC(C)N(Cc1cc(Nc2ncnc3ccccc23)cc(Cl)c1O)C(C)(C)C` [Compound 22], the EC50 amounted to 10.8 µM.

With `CCCN(CCC)Cc1cc(Nc2ncnc3ccccc23)cc(Cl)c1O` [Compound 23], the EC50 was 15.3 µM.

Consider `CC1CC(C)CN(Cc2cc(Nc3ncnc4ccccc34)cc(Cl)c2O)C1` (stereo not drawn) [Compound 24], for which the EC50 worked out at 2.1 µM.

As for `CC(C)N(Cc1cc(Nc2ncnc3cc(F)ccc23)cc(Cl)c1O)C(C)C` [Compound 25], the EC50 worked out at 2.5 µM.

`CCN(Cc1cc(Nc2ncnc3ccccc23)ccc1O)c1ccc(Cl)cc1` [Compound 26]: the EC50 was found to be 11.7 µM.

On to `CC(C)N(Cc1cc(Nc2ncnc3ccccc23)ccc1O)c1ccc(Cl)cc1` [Compound 27], for which the EC50 amounted to 13.9 µM.

Turning to `CCN(Cc1cc(Nc2ncnc3ccccc23)cc(Cl)c1O)c1ccc(Cl)cc1` [Compound 28], the EC50 was 10 µM.

As for `CC(C)N(Cc1ccncc1)Cc1cc(Nc2ncnc3ccccc23)cc(Cl)c1O` [Compound 29], the EC50 came to 10.6 µM.

For `CCN(Cc1cc(Nc2ncnc3ccccc23)cc(Cl)c1O)c1ccc(F)c(Cl)c1` [Compound 30], the EC50 was found to be 10.8 µM.

For `C[C@H]1C[C@H](C)CN(Cc2cc(Nc3ncnc4ccccc34)cc(Cl)c2O)C1` [Compound 31], the EC50 came out at 19.4 µM.

In the case of `CCN(Cc1cc(Nc2ncnc3ccccc23)cc(Cl)c1O)CC(C)(C)C` [Compound 32], the EC50 was 20 µM.

For the compound `CC(C)N(Cc1cc(Nc2ncnc3ccccc23)cc(Cl)c1O[C@H]1O[C@@H](C)[C@@H](O)[C@@H](O)[C@@H]1O)C(C)C` [Compound 34], the EC50 came out at 60.2 µM.

The same series, now with this note: Severe acute respiratory syndrome coronavirus 2, VeroE6/TMPRSS2, 72 h, read-out: EC50 (50% effective concentration, inhibits cell death induced by SARS-CoV-2 infection by 50%).
On to `CC(C)(C)[C@H](NC(=O)C(F)(F)F)C(=O)N1C[C@H]2[C@@H]([C@H]1C(=O)N[C@H](C#N)C[C@@H]1CCNC1=O)C2(C)C` [Nirmatrelvir, reference compound], for which the EC50 amounted to 8.3 µM.

Staying with this series, now noted: Severe acute respiratory syndrome coronavirus 2; Table 5, VeroE6/TMPRSS2 (CPE); read-out: EC50.
With `CCN(Cc1cc(Nc2ncnc3ccccc23)cc(Cl)c1O)C1CCCCC1` [Compound 19], the EC50 was 3.2 µM.

The series is the same for the next values; noted with them: read-out: EC50 (50% effective concentration, inhibits cell death induced by SARS-CoV-2 infection by 50%).
As to `CCN(Cc1cc(Nc2ncnc3ccccc23)cc(Cl)c1O)C(C)C` [Compound 11], the EC50 was found to be 7.6 µM.

Turning to `CC(C)N(Cc1cc(Nc2ncnc3ccccc23)cc(Cl)c1O)C(C)C` [Compound 15], the EC50 is 3.3 µM.

The series is the same for the next values; noted with them: read-out: EC50 (50% effective concentration, inhibits cell death induced by SARS-CoV-2 infection by 50%); VeroE6/TMPRSS2 cells, SARS-CoV-2 WK-521, MOI 0.01, 3 days; Tables 1-4.
`CCN(C)Cc1cc(Nc2ncnc3ccccc23)cc(I)c1O` [Compound 8]: the EC50 came out at 57.6 µM.

On to `CN(Cc1ccccc1)Cc1cc(Nc2ncnc3ccccc23)cc(I)c1O` [Compound 9], for which the EC50 was found to be 8 µM.

Regarding `CN1CCN(Cc2cc(Nc3ncnc4ccccc34)cc(I)c2O)CC1` [Compound 10], the EC50 came out at 15.5 µM.

Take `CC(C)N(Cc1cc(Nc2ncnc3ccccc23)cc(I)c1O)C(C)C` [Compound 16]: the EC50 stood at 44.6 µM.

In another series the test system is VeroE6/TMPRSS2 cells.
Assay: not given
To be noted: African green monkey, 3 days.
Compound `CCN(Cc1cc(Nc2ncnc3ccccc23)cc(Cl)c1O)C1CCCCC1` [Compound 19] registered a CC50 above 100 µM.

The same series, now with this note: Table 5, VeroE6/TMPRSS2 (CPE).
For `CCN(Cc1cc(Nc2ncnc3ccccc23)cc(Cl)c1O)C(C)C` [Compound 11], the CC50 was above 100 µM.

With `CC(C)N(Cc1cc(Nc2ncnc3ccccc23)cc(Cl)c1O)C(C)C` [Compound 15], the CC50 was above 100 µM.

The series is the same for the next values; noted with them: read-out: CC50 (50% toxicity concentration, reduces the number of viable cells in non-infected cells by 50%); non-infected VeroE6/TMPRSS2 cells, 3 days; Tables 1-4.
`CCN(C)Cc1cc(Nc2ncnc3ccccc23)cc(I)c1O` [Compound 8]: the CC50 was above 100 µM.

With `CN(Cc1ccccc1)Cc1cc(Nc2ncnc3ccccc23)cc(I)c1O` [Compound 9], the CC50 was determined as 38.1 µM.

As for `CN1CCN(Cc2cc(Nc3ncnc4ccccc34)cc(I)c2O)CC1` [Compound 10], the CC50 was above 100 µM.

As for `CCN(Cc1cc(Nc2ncnc3ccccc23)cc(Cl)c1O)C(C)C` [Compound 11], the CC50 is above 100 µM.

As to `CC(C)N(Cc1cc(Nc2ncnc3ccccc23)cc(Cl)c1O)C(C)C` [Compound 15], the CC50 was above 100 µM.

Consider `CC(C)N(Cc1cc(Nc2ncnc3ccccc23)cc(I)c1O)C(C)C` [Compound 16], for which the CC50 is above 100 µM.

The test system of a further series is SARS-CoV-2 (WK-521 strain). Put plainly: microbe, parasite or virus in culture. As to conditions: Severe acute respiratory syndrome coronavirus 2, HEK-293T, 72 h.
`CCN(Cc1cc(Nc2ncnc3ccccc23)cc(Cl)c1O)C1CCCCC1` [Compound 19] showed an EC50 of 0.14 µM.

Tested on in the next series: not listed separately
Put plainly: in vitro. To be noted: African green monkey.
As to `C[C@@H]1CN(Cc2cc(Nc3ncnc4ccccc34)cc(Cl)c2O)[C@@H](C)CN1C` (racemic) [Compound 33], the CC50 at 3 days was above 100 µM.

The compound `CCN(CC)Cc1cc(Nc2ncnc3ccccc23)cc(Br)c1O` [Compound 3] returned a CC50 at 3 days above 100 µM.

For the compound `CCN(CC)Cc1cc(Nc2ncnc3ccccc23)cc(I)c1O` [Compound 4], the CC50 at 3 days is above 100 µM.

In the case of `CCN(CC)Cc1cc(Nc2ncnc3cc(OC)c(OC)cc23)cc(I)c1O` [Compound 5], the CC50 at 3 days is above 100 µM.

With `CCN(CC)Cc1cc(Nc2nc(N(C)C)nc3ccccc23)cc(I)c1O` [Compound 6], the CC50 at 3 days was found to be 49.9 µM.

The compound `CCN(CC)Cc1cc(Nc2nc(N(C)C)nc3ccccc23)cc(Cl)c1O` [Compound 7] returned a CC50 at 3 days of 49.2 µM.

In turn, `CCNCc1cc(Nc2ncnc3ccccc23)cc(I)c1O` [Compound 13] displayed a CC50 at 3 days above 100 µM.

For the compound `CCN(Cc1cc(Nc2ncnc3ccccc23)cc(Cl)c1O)C1CCCCC1` [Compound 19], the CC50 at 3 days was above 100 µM.

Take `CCN(Cc1cc(Nc2ncnc3ccccc23)cc(Cl)c1O)C(C)(C)C` [Compound 20]: the CC50 at 3 days was above 100 µM.

With `CCCN(Cc1cc(Nc2ncnc3ccccc23)cc(Cl)c1O)C(C)C` [Compound 21], the CC50 at 3 days was above 100 µM.

Turning to `CC(C)N(Cc1cc(Nc2ncnc3ccccc23)cc(Cl)c1O)C(C)(C)C` [Compound 22], the CC50 at 3 days was above 100 µM.

The compound `CCCN(CCC)Cc1cc(Nc2ncnc3ccccc23)cc(Cl)c1O` [Compound 23] displayed a CC50 at 3 days above 100 µM.

In turn, `CC1CC(C)CN(Cc2cc(Nc3ncnc4ccccc34)cc(Cl)c2O)C1` (stereo not drawn) [Compound 24] showed a CC50 at 3 days above 100 µM.

Turning to `CC(C)N(Cc1cc(Nc2ncnc3cc(F)ccc23)cc(Cl)c1O)C(C)C` [Compound 25], the CC50 at 3 days was above 100 µM.

`CCN(Cc1cc(Nc2ncnc3ccccc23)ccc1O)c1ccc(Cl)cc1` [Compound 26] came in with a CC50 at 3 days above 100 µM.

In turn, `CC(C)N(Cc1cc(Nc2ncnc3ccccc23)ccc1O)c1ccc(Cl)cc1` [Compound 27] returned a CC50 at 3 days above 100 µM.

`CCN(Cc1cc(Nc2ncnc3ccccc23)cc(Cl)c1O)c1ccc(Cl)cc1` [Compound 28] showed a CC50 at 3 days above 100 µM.

As for `CC(C)N(Cc1ccncc1)Cc1cc(Nc2ncnc3ccccc23)cc(Cl)c1O` [Compound 29], the CC50 at 3 days was above 100 µM.

Take `CCN(Cc1cc(Nc2ncnc3ccccc23)cc(Cl)c1O)c1ccc(F)c(Cl)c1` [Compound 30]: the CC50 at 3 days is above 100 µM.

In turn, `C[C@H]1C[C@H](C)CN(Cc2cc(Nc3ncnc4ccccc34)cc(Cl)c2O)C1` [Compound 31] displayed a CC50 at 3 days of 37.5 µM.

`CCN(Cc1cc(Nc2ncnc3ccccc23)cc(Cl)c1O)CC(C)(C)C` [Compound 32] gave a CC50 at 3 days of 60.2 µM.

`CC(C)N(Cc1cc(Nc2ncnc3ccccc23)cc(Cl)c1O[C@H]1O[C@@H](C)[C@@H](O)[C@@H](O)[C@@H]1O)C(C)C` [Compound 34] yielded a CC50 at 3 days above 100 µM.

For the compound `CC(C)(C)[C@H](NC(=O)C(F)(F)F)C(=O)N1C[C@H]2[C@@H]([C@H]1C(=O)N[C@H](C#N)C[C@@H]1CCNC1=O)C2(C)C` [Nirmatrelvir, reference compound], the CC50 was above 100 µM.

In another series the test system is SARS-CoV-2. Put plainly: Anti-SARS-CoV-2 RNA assay in Vero cells. It is filed as cell-based. To be noted: Severe acute respiratory syndrome coronavirus 2; Table 5, Vero (RNA).
`CCN(Cc1cc(Nc2ncnc3ccccc23)cc(Cl)c1O)C1CCCCC1` [Compound 19] displayed an EC50 of 2.9 µM.

Staying with this series, now noted: Table 5, Vero (RNA).
Take `CCN(Cc1cc(Nc2ncnc3ccccc23)cc(Cl)c1O)C(C)C` [Compound 11]: the EC50 came to 5.5 µM.

On to `CC(C)N(Cc1cc(Nc2ncnc3ccccc23)cc(Cl)c1O)C(C)C` [Compound 15], for which the EC50 worked out at 1.7 µM.

A further series relates to SARS-CoV-2 (WK-521 strain).
Assay: not given
Conditions: not given
Turning to `CC(C)N(Cc1cc(Nc2ncnc3ccccc23)cc(Cl)c1O)C(C)C` [Compound 15], the “selectivity coefficient (CC50/EC50)” value is recorded as above 833.

The series is the same for the next values; noted with them: HEK293T/ACE2 (RNA), WK-521, MOI 0.1, 3 days.
Regarding `CCN(Cc1cc(Nc2ncnc3ccccc23)cc(Cl)c1O)C(C)C` [Compound 11], the EC50 is 0.12 µM.

As for `CC(C)N(Cc1cc(Nc2ncnc3ccccc23)cc(Cl)c1O)C(C)C` [Compound 15], the EC50 came to 0.12 µM.

For the next series, the system named is SARS-CoV-2. In words: Anti-SARS-CoV-2 RNA assay in VeroE6/TMPRSS2 cells. The series is classed as cell-based. As to conditions: Severe acute respiratory syndrome coronavirus 2; Table 5, VeroE6/TMPRSS2 (RNA).
Compound `CCN(Cc1cc(Nc2ncnc3ccccc23)cc(Cl)c1O)C1CCCCC1` [Compound 19] returned an EC50 of 2.9 µM.

Staying with this series, now noted: Table 5, VeroE6/TMPRSS2 (RNA).
With `CCN(Cc1cc(Nc2ncnc3ccccc23)cc(Cl)c1O)C(C)C` [Compound 11], the EC50 is 1.9 µM.

For `CC(C)N(Cc1cc(Nc2ncnc3ccccc23)cc(Cl)c1O)C(C)C` [Compound 15], the EC50 worked out at 1.9 µM.
